Measured values taken from ChEMBL document CHEMBL1201862, “PubChem BioAssay data set” (2004).
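Following 48 hours of exposure in 96-well plates, responses at five concentrations were used to interpolate endpoints linearly. GI50 is the concentration that inhibits growth by half.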 The source made the active and inactive calls. Cut-off read from the data, not from the text of the source: active = GI50 up to about 1.1 µM and inactive = higher.

Columns and labels:
Assay in all cases: NCI tumour cell line growth inhibition, 48 h
M14 = test system: M14
U-251 = test system: U-251
T47D = test system: T47D
UO-31 = test system: UO-31
OVCAR-3 = test system: OVCAR-3
UACC-62 = test system: UACC-62
OVCAR-5 = test system: OVCAR-5
HT-29 = test system: HT-29
DU-145 = test system: DU-145
HCT-116 = test system: HCT-116
HOP-92 = test system: HOP-92
NCI-H226 = test system: NCI-H226
SNB-19 = test system: SNB-19
RPMI-8226 = test system: RPMI-8226
HOP-62 = test system: HOP-62
NCI-H460 = test system: NCI-H460
IGROV-1 = test system: IGROV-1
NCI/ADR-RES = test system: NCI/ADR-RES
MDA-MB-435 = test system: MDA-MB-435
TK-10 = test system: TK-10
CCRF-CEM = test system: CCRF-CEM
MDA-MB-231 = test system: MDA-MB-231
LOX IMVI = test system: LOX IMVI
MDA-N = test system: MDA-N
SN12C = test system: SN12C
NCI-H522 = test system: NCI-H522
SK-MEL-5 = test system: SK-MEL-5
Malme-3M = test system: Malme-3M
SK-MEL-28 = test system: SK-MEL-28
KM12 = test system: KM12
MCF7 = test system: MCF7
A498 = test system: A498
RXF 393 = test system: RXF 393
OVCAR-8 = test system: OVCAR-8
EKVX = test system: EKVX
SR = test system: SR
PC-3 = test system: PC-3
HCC 2998 = test system: HCC 2998
COLO 205 = test system: COLO 205
A549 = test system: A549
SNB-75 = test system: SNB-75
BT-549 = test system: BT-549
OVCAR-4 = test system: OVCAR-4
SK-OV-3 = test system: SK-OV-3
UACC-257 = test system: UACC-257
SW-620 = test system: SW-620
SF-268 = test system: SF-268
SK-MEL-2 = test system: SK-MEL-2
Hs-578T = test system: Hs-578T
ACHN = test system: ACHN
SF-295 = test system: SF-295
K562 = test system: K562
CAKI-1 = test system: CAKI-1
NCI-H23 = test system: NCI-H23
HL-60 = test system: HL-60
HCT-15 = test system: HCT-15
786-0 = test system: 786-0
MOLT-4 = test system: MOLT-4
SF-539 = test system: SF-539

**Q.** With `O=C1Nc2ccccc2C1(O)Cc1ccccn1` (stereo not drawn) as the molecule, how does the GI50 (M14) read?
**A.** > 100 µM (inactive)

**Q.** What about the GI50 (U-251) of the same molecule?
**A.** > 100 µM (inactive)

**Q.** And the GI50 (T47D)?
**A.** > 100 µM (inactive)

**Q.** And the GI50 (UO-31)?
**A.** > 100 µM (inactive)

**Q.** And the GI50 (OVCAR-3)?
**A.** > 100 µM (inactive)

**Q.** What about the GI50 (UACC-62) of the same molecule?
**A.** > 100 µM (inactive)

**Q.** What about the GI50 (OVCAR-5) of the same molecule?
**A.** > 100 µM (inactive)

**Q.** What about the GI50 (HT-29) of the same molecule?
**A.** > 100 µM (inactive)

**Q.** And the GI50 (DU-145)?
**A.** > 100 µM (inactive)

**Q.** What about the GI50 (HCT-116) of the same molecule?
**A.** > 100 µM (inactive)

**Q.** And the GI50 (HOP-92)?
**A.** > 100 µM (inactive)

**Q.** And the GI50 (NCI-H226)?
**A.** > 100 µM (inactive)

**Q.** What about the GI50 (SNB-19) of the same molecule?
**A.** > 100 µM (inactive)

**Q.** What about the GI50 (RPMI-8226) of the same molecule?
**A.** > 100 µM (inactive)

**Q.** What about the GI50 (HOP-62) of the same molecule?
**A.** > 100 µM (inactive)

**Q.** What about the GI50 (NCI-H460) of the same molecule?
**A.** > 100 µM (inactive)

**Q.** What about the GI50 (IGROV-1) of the same molecule?
**A.** > 100 µM (inactive)

**Q.** What about the GI50 (NCI/ADR-RES) of the same molecule?
**A.** > 100 µM (inactive)

**Q.** What about the GI50 (MDA-MB-435) of the same molecule?
**A.** > 100 µM (inactive)

**Q.** And the GI50 (TK-10)?
**A.** > 100 µM (inactive)

**Q.** What about the GI50 (CCRF-CEM) of the same molecule?
**A.** > 100 µM (inactive)

**Q.** What about the GI50 (MDA-MB-231) of the same molecule?
**A.** > 100 µM (inactive)

**Q.** And the GI50 (LOX IMVI)?
**A.** > 100 µM (inactive)

**Q.** And the GI50 (MDA-N)?
**A.** > 100 µM (inactive)

**Q.** And the GI50 (SN12C)?
**A.** > 100 µM (inactive)

**Q.** And the GI50 (NCI-H522)?
**A.** > 100 µM (inactive)

**Q.** What about the GI50 (SK-MEL-5) of the same molecule?
**A.** > 100 µM (inactive)

**Q.** And the GI50 (Malme-3M)?
**A.** > 100 µM (inactive)

**Q.** And the GI50 (SK-MEL-28)?
**A.** > 100 µM (inactive)

**Q.** And the GI50 (KM12)?
**A.** > 100 µM (inactive)

**Q.** What about the GI50 (MCF7) of the same molecule?
**A.** > 100 µM (inactive)

**Q.** What about the GI50 (A498) of the same molecule?
**A.** > 100 µM (inactive)

**Q.** What about the GI50 (RXF 393) of the same molecule?
**A.** > 100 µM (inactive)

**Q.** What about the GI50 (OVCAR-8) of the same molecule?
**A.** > 100 µM (inactive)

**Q.** What about the GI50 (EKVX) of the same molecule?
**A.** > 100 µM (inactive)

**Q.** What about the GI50 (SR) of the same molecule?
**A.** > 100 µM (inactive)

**Q.** What about the GI50 (PC-3) of the same molecule?
**A.** > 100 µM (inactive)

**Q.** What about the GI50 (HCC 2998) of the same molecule?
**A.** > 100 µM (inactive)

**Q.** What about the GI50 (COLO 205) of the same molecule?
**A.** > 100 µM (inactive)

**Q.** What about the GI50 (A549) of the same molecule?
**A.** > 100 µM (inactive)

**Q.** What about the GI50 (SNB-75) of the same molecule?
**A.** 43.1 µM (inactive)

**Q.** What about the GI50 (BT-549) of the same molecule?
**A.** > 100 µM (inactive)

**Q.** And the GI50 (OVCAR-4)?
**A.** > 100 µM (inactive)

**Q.** And the GI50 (SK-OV-3)?
**A.** > 100 µM (inactive)

**Q.** And the GI50 (UACC-257)?
**A.** > 100 µM (inactive)

**Q.** And the GI50 (SW-620)?
**A.** > 100 µM (inactive)

**Q.** And the GI50 (SF-268)?
**A.** > 100 µM (inactive)

**Q.** And the GI50 (SK-MEL-2)?
**A.** > 100 µM (inactive)

**Q.** What about the GI50 (Hs-578T) of the same molecule?
**A.** > 100 µM (inactive)

**Q.** And the GI50 (ACHN)?
**A.** > 100 µM (inactive)

**Q.** And the GI50 (SF-295)?
**A.** > 100 µM (inactive)

**Q.** What about the GI50 (K562) of the same molecule?
**A.** > 100 µM (inactive)

**Q.** What about the GI50 (CAKI-1) of the same molecule?
**A.** > 100 µM (inactive)

**Q.** What about the GI50 (NCI-H23) of the same molecule?
**A.** > 100 µM (inactive)

**Q.** And the GI50 (HL-60)?
**A.** > 100 µM (inactive)

**Q.** And the GI50 (HCT-15)?
**A.** > 100 µM

**Q.** And the GI50 (786-0)?
**A.** > 100 µM (inactive)

**Q.** What does the source list for `O=C(/C=C/C=C/c1ccccc1)CCc1ccccc1`?
**A.** GI50 (M14): > 100 µM (inactive); GI50 (U-251): 61 µM (inactive); GI50 (MOLT-4): 21 µM (inactive); GI50 (T47D): 53.3 µM (inactive); GI50 (UO-31): 90.6 µM (inactive); GI50 (OVCAR-3): > 100 µM (inactive); GI50 (UACC-62): > 100 µM (inactive); GI50 (OVCAR-5): > 100 µM (inactive); GI50 (HT-29): 69.7 µM (inactive); GI50 (DU-145): > 100 µM (inactive); GI50 (HCT-116): 40.7 µM (inactive); GI50 (HOP-92): > 100 µM (inactive); GI50 (NCI-H226): > 100 µM (inactive); GI50 (SNB-19): 62.1 µM (inactive); GI50 (RPMI-8226): > 10 µM (inactive); GI50 (HOP-62): > 100 µM (inactive); GI50 (IGROV-1): > 100 µM (inactive); GI50 (NCI/ADR-RES): 68.5 µM (inactive); GI50 (MDA-MB-435): 72.6 µM (inactive); GI50 (TK-10): > 100 µM (inactive); GI50 (CCRF-CEM): 35.2 µM (inactive); GI50 (MDA-MB-231): > 100 µM (inactive); GI50 (LOX IMVI): 79.4 µM (inactive); GI50 (MDA-N): > 100 µM (inactive); GI50 (SN12C): > 100 µM (inactive); GI50 (NCI-H522): 50.2 µM (inactive); GI50 (SK-MEL-5): > 100 µM (inactive); GI50 (Malme-3M): > 100 µM (inactive); GI50 (SK-MEL-28): > 10 µM (inactive); GI50 (KM12): 22.1 µM (inactive); GI50 (MCF7): > 100 µM (inactive); GI50 (A498): > 100 µM (inactive); GI50 (RXF 393): > 100 µM (inactive); GI50 (OVCAR-8): 73.8 µM (inactive); GI50 (EKVX): > 100 µM (inactive); GI50 (SR): 20.3 µM (inactive); GI50 (PC-3): 83 µM (inactive); GI50 (HCC 2998): > 100 µM (inactive); GI50 (COLO 205): > 100 µM (inactive); GI50 (A549): > 100 µM (inactive); GI50 (SNB-75): > 100 µM (inactive); GI50 (BT-549): > 100 µM (inactive); GI50 (OVCAR-4): 70.3 µM (inactive); GI50 (SK-OV-3): > 100 µM (inactive); GI50 (UACC-257): > 100 µM (inactive); GI50 (SW-620): 37.6 µM (inactive); GI50 (SF-268): 85.1 µM (inactive); GI50 (SK-MEL-2): > 100 µM (inactive); GI50 (Hs-578T): 75.9 µM (inactive); GI50 (SF-539): > 100 µM (inactive); GI50 (SF-295): > 100 µM (inactive); GI50 (CAKI-1): > 100 µM (inactive); GI50 (NCI-H23): 63.7 µM (inactive); GI50 (HL-60): 23.4 µM (inactive); GI50 (HCT-15): 94.4 µM; GI50 (786-0): > 100 µM (inactive)
